Patent US8372823B2, “Tetracyclic inhibitors of fatty acid amide hydrolase” (The Scripps Research Institute, priority 2007, dated 2013)

Columns and labels:
[1] = CREAE mice, model of multiple sclerosis; cited from earlier work
[2] = biological target: T1, purified recombinant rat FAAH (Rattus norvegicus, UniProt P97612); assay: FAAH enzyme assay, Ki (Dixon plot), rat FAAH; type: biochemical; conditions: purified recombinant rat FAAH expressed in E. coli; 14C-oleamide hydrolysis; pH 9.0; 20-23° C.
T1 construct: made in house; host or cells: E. coli
T1 sequence (P97612 1-579): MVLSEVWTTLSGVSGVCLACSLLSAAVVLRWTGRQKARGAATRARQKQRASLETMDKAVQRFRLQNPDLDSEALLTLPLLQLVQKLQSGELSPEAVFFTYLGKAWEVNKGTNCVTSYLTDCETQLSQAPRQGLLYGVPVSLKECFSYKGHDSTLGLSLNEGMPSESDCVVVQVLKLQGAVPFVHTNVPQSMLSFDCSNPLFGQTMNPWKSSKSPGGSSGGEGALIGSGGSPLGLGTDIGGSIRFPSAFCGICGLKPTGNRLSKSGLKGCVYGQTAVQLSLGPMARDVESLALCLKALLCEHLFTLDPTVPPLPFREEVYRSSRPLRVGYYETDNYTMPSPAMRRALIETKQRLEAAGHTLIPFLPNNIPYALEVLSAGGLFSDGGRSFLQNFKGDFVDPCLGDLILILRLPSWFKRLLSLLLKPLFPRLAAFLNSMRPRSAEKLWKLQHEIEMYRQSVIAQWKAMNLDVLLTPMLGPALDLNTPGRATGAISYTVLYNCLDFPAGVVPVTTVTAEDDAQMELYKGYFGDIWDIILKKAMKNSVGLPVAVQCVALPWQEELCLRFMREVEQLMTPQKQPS

FAAH [3] = biological target: T2, FAAH (Homo sapiens, UniProt O00519); assay: FAAH enzyme assay, Ki (Dixon plot), human FAAH; type: biochemical; set-up: expressed in transfected cells; host or cells: COS-7 (transient transfection), solubilized membrane extracts; conditions: solubilized COS-7 membrane extracts, human FAAH cDNA; 14C-oleamide hydrolysis; pH 9.0; 20-23° C.
T2 sequence (O00519 1-579): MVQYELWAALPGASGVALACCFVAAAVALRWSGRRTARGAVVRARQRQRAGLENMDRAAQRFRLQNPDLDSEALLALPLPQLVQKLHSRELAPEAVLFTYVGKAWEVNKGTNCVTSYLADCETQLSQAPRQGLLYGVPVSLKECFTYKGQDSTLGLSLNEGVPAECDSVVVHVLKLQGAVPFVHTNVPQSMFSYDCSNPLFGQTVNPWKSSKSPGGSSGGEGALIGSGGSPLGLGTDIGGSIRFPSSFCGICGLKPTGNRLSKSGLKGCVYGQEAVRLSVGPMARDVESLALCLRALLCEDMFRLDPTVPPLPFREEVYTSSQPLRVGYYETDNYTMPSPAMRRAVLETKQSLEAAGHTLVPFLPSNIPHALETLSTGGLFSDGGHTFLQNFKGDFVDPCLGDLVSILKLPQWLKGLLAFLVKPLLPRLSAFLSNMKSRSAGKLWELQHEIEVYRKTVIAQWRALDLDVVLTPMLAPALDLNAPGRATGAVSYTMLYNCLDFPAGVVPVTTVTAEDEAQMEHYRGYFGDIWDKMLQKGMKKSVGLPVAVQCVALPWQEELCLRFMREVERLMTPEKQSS

[4] = rats; cited from earlier work
[5] = rats; cited from earlier work; remark: listed apart in the source
[6] = rats; cited from earlier work; remark: listed apart in the source
[7] = rat; cited from earlier work
[8] = rat; cited from earlier work; remark: listed apart in the source
rat FAAH = biological target: T3, rat FAAH (Rattus norvegicus, UniProt P97612); assay: FAAH inhibition IC50, rat; type: biochemical; conditions: inhibition at 3-5 test compound concentrations
T3 construct: made in house; host or cells: E. coli
T3 sequence (P97612 1-579): T1 sequence (P97612 1-579)
Method: (§1) Enzyme assays were performed at 20-23° C. with purified recombinant rat FAAH expressed in E. coli (Patricelli, M. P.; Lashuel, H. A.; et al. Biochemistry 1998, 37, 15177-15187) (unless indicated otherwise) or with solubilized COS-7 membrane extracts from cells transiently transfected with human FAAH cDNA (Giang, D. K.; Cravatt, B. F. Proc. Natl. Acad. Sci. U.S.A. 1997, 94, 2238-2242) (where specifically indicated) in a buffer of 125 mM Tris/1 mM EDTA/0.2% glycerol/0.02% Triton X-100/0.4 mM Hepes, pH 9.0 buffer (Patricelli, M. P.; Patterson, J. P.; et al. Bioorg. Med. Chem. Lett. 1998, 8, 613-618). […] NT=no data available.
(§2) IC50 values were determined from the inhibition observed at 3-5 different test compound concentrations (from three or more trials at each concentration) using the formula IC50=[I]/[K0/Ki)-1], where K0 is the control reaction rate without inhibitor and Ki is the rate with test compound at concentration [I] (Conde-Frieboes, K. et al. J. Am. Chem. Soc. 1996, 118, 5519-5525). NT=no data available.

FAAH [9] = biological target: T2, FAAH; assay: FAAH inhibition IC50, human; type: biochemical; set-up: expressed in transfected cells; host or cells: COS-7 (transient transfection), solubilized membrane extracts; conditions: inhibition at 3-5 test compound concentrations
Method: as §1, §2

FAAH [10] = biological target: T2, FAAH; conditions: cited from earlier work
[11] = rats; cited from earlier work; remark: listed apart in the source

| SMILES | Ki [2] | IC50 (rat FAAH) | IC50 (FAAH [9]) | also measured |
| --- | --- | --- | --- | --- |
| CCCCCCCCCCCCCCCCS(=O)(=O)F [AM374] | – | – | – | reduction of spasticity [1]: significantly reduce spasticity |
| Cc1nc(-c2ccccc2)c(-c2ccccc2)n1CCCCCCNC(=O)Oc1ccccc1F [BMS-1] | – | – | – | analgesic effect in Chung spinal nerve ligation model [4]: analgesic effect; analgesic effect in Hargraves test of acute thermal nociception [5]: analgesic effect |
| NC(=O)c1cccc(-c2cccc(OC(=O)NC3CCCCC3)c2)c1 [URB-597] | – | – | – | efficacy in zero plus maze model of anxiety [6]: efficacy; analgesic efficacy in formalin test [7]: analgesic efficacy; analgesic activity in hot plate test [8]: analgesic efficacy |
| CCOC(=O)c1cccc(-c2cnc(C(=O)CCc3ccc(-c4ccccc4)cc3)o2)n1 [Example 22, 6-[2-(3-Biphenyl-4-yl-propionyl)-oxazol-5-yl]-pyridine-2-carboxylic acid ethyl ester] | 3 nM | 2 nM | 2 nM | – |
| O=C(CCc1ccc(-c2ccccc2)cc1)c1ncc(-c2cccnc2)o1 [Example 31, 3-Biphenyl-4-yl-1-(5-pyridin-3-yl-oxazol-2-yl)-propan-1-one] | 1.1 nM | 2 nM | 22 nM | – |
| O=C(O)c1cccc(-c2cnc(C(=O)CCc3ccc(-c4ccc(CN5CCOCC5)cc4)cc3)o2)n1 [Example 41, 6-{2-[3-(4′-Morpholin-4-ylmethyl-biphenyl-4-yl)-propionyl]-oxazol-5-yl}-pyridine-2-carboxylic acid] | 150 nM | 3 nM | 9 nM | – |
| O=C(CCc1ccc(-c2ccccc2)cc1)c1ncc(-c2cccc(-c3nnn[nH]3)n2)o1 [Example 46, 3-Biphenyl-4-yl-1-{5-[6-(1H-tetrazol-5-yl)-pyridin-2-yl]-oxazol-2-yl}-propan-1-one] | 27 nM | 9 nM | 83 nM | – |
| O=C(O)c1ccc(-c2cnc(C(=O)CCc3ccc(COc4ccccc4)cc3)o2)nc1 [Example 19, 6-{2-[3-(4-Phenoxymethyl-phenyl)-propionyl]-oxazol-5-yl}-nicotinic acid] | 4.6 nM | 2.5 nM | 0.8 nM | – |
| O=C(CCCCCCc1ccccc1)c1ncc(-c2ccccn2)o1 [OL-135] | – | – | – | inhibition of FAAH (FAAH [10]): potent inhibitor; analgesic activity in tail emersion test [11]: analgesic activity; analgesic activity in hot plate test [8]: analgesic activity |
| O=C(O)c1cccc(-c2cnc(C(=O)CCc3ccc(COc4ccccc4)cc3)o2)n1 [Example 18, 6-{2-[3-(4-Phenoxymethyl-phenyl)-propionyl]-oxazol-5-yl}-pyridine-2-carboxylic acid] | 6.1 nM | 0.5 nM | 1 nM | – |
| O=C(CCc1ccc(OCc2ccccc2)cc1)c1nc2ncccc2o1 [Example 11k, 3-(4-(Benzyloxy)phenyl)-1-(oxazolo[4,5-b]pyridin-2-yl)propan-1-one] | 0.38 nM | – | – | Ki (FAAH [3]): 0.6 nM |

The next lines start with results.

| Ki [2] | IC50 (rat FAAH) | IC50 (FAAH [9]) | SMILES | also measured |
| --- | --- | --- | --- | --- |
| 1 nM | – | – | O=C(CCc1ccc(COc2ccccc2)cc1)c1ncc(-c2ccccn2)o1 [Example 11e, 3-(4-(Phenoxymethyl)phenyl)-1-(5-(pyridin-2-yl)oxazol-2-yl)propan-1-one] | Ki (FAAH [3]): 5 nM |
| 1.6 nM | 1.5 nM | 29 nM | COC(=O)c1cc(-c2cnc(C(=O)CCc3ccc(-c4ccccc4)cc3)o2)ccn1 [Example 28, 4-[2-(3-Biphenyl-4-yl-propionyl)-oxazol-5-yl]-pyridine-2-carboxylic acid methyl ester] | – |
| 13 nM | 5 nM | 2 nM | COC(=O)c1cccc(-c2cnc(C(=O)CCc3ccc(Oc4ccccc4)cc3)o2)n1 [Example 12, 6-{2-[3-(4-Phenoxy-phenyl)-propionyl]-oxazol-5-yl}-pyridine-2-carboxylic acid methyl ester] | – |
| 1.3 nM | – | – | O=C(CCc1ccc(OCc2ccccc2)cc1)c1ncc(-c2ccccn2)o1 [Example 11a, 1-Oxo-1-[5-(2-pyridyl)oxazol-2-yl]-3-(4-(benzyloxy)phenyl)propane] | melting point: 99 to 100 °C; Ki (FAAH [3]): 0.45 nM |
| 0.6 nM | 17 nM | 500 nM | COC(=O)c1ccc(-c2cnc(C(=O)CCc3ccc(-c4ccccc4)cc3)o2)cn1 [Example 32, 5-[2-(3-Biphenyl-4-yl-propionyl)-oxazol-5-yl]pyridine-2-carboxylic acid methyl ester] | – |
| 1.2 nM | 0.5 nM | 2 nM | NC(=O)c1cccc(-c2cnc(C(=O)CCc3ccc(-c4ccccc4)cc3)o2)n1 [Example 26, 6-[2-(3-Biphenyl-4-yl-propionyl)-oxazol-5-yl]-pyridine-2-carboxylic acid amide] | – |
| 2.2 nM | 8 nM | 5 nM | COC(=O)c1ccc(-c2cnc(C(=O)CCc3ccc(-c4ccccc4)cc3)o2)nc1 [Example 23, 6-[2-(3-Biphenyl-4-yl-propionyl)-oxazol-5-yl]-nicotinic acid methyl ester] | – |
| 22 nM | 0.6 nM | 2 nM | O=C(O)c1cccc(-c2cnc(C(=O)CCc3ccc(-c4ccccc4)cc3)o2)n1 [Example 24, 6-[2-(3-Biphenyl-4-yl-propionyl)-oxazol-5-yl]-pyridine-2-carboxylic acid] | – |
| 65 nM | 1.5 nM | 2.7 nM | O=C(O)c1cccc(-c2cnc(C(=O)CCc3ccc(Oc4ccccc4)cc3)o2)n1 [Example 14, 6-{2-[3-(4-Phenoxy-phenyl)-propionyl]-oxazol-5-yl}-pyridine-2-carboxylic acid] | – |
| 3 nM | 2 nM | 11 nM | N#Cc1cccc(-c2cnc(C(=O)CCc3ccc(-c4ccccc4)cc3)o2)n1 [Example 20, 6-[2-(3-Biphenyl-4-yl-propionyl)-oxazol-5-yl]-pyridine-2-carbonitrile] | – |
| 33 nM | 0.2 nM | 0.3 nM | O=C(O)c1ccc(-c2cnc(C(=O)CCc3ccc(Oc4ccccc4)cc3)o2)nc1 [Example 15, 6-{2-[3-(4-Phenoxy-phenyl)-propionyl]-oxazol-5-yl}-nicotinic acid] | – |
| 1.2 nM | 0.5 nM | 3 nM | COC(=O)c1cccc(-c2cnc(C(=O)CCc3ccc(-c4ccccc4)cc3)o2)n1 [Example 21, 6-[2-(3-Biphenyl-4-yl-propionyl)-oxazol-5-yl]-pyridine-2-carboxylic acid methyl ester] | Ki (FAAH [3]): 1.2 nM |
